Experimental data from PMC9952338, “Chemical Constituents from Streblus taxoides Wood with Their Antibacterial and Antityrosinase Activities Plus in Silico Study” (Antibiotics, 2023).
Converted amounts (≈) assume the structure as drawn. “Also recorded” adds a separate entry of the source. Where two headings read alike, the source gives them in different places.

Key:
[1] = tested on: tyrosinase in B16-F1 melanoma cells; test: Intracellular antityrosinase activity; format: cell-based, murine; conditions: 50 µg/mL, 48 h
Description: (§1) The murine B16-F1 melanoma cells (CLS-400122, CLS Cell Lines Service GmbH, Germany) were cultured in Dulbecco’s modified Eagle’s medium, which was supplemented with 10% fetal bovine serum in a humidified incubator at 37 C with 5% CO2. When cells reached 70–80% confluence cell viability, cellular tyrosinase activity and melanin content were measured. The B16-F1 cells were seeded at a density of 3 × 10^5 cells/well on 12-well plates and cultured for 12 h. Cells were treated with test samples and control (0.5% DMSO). After 48 h of incubation, cells were lysed with RIPA and centrifuged at 14,000 rpm for 20 min (4 °C) to separate the cell pellet and supernatant. The supernatant was collected and the protein content was determined by the Bradford method using bovine serum albumin as standard. The supernatant was incubated and 2 mg/mL L-Dopa was added to a 96-well plate at 25 °C for 1 h. After that, optical densities were measured at 492 nm. Then, tyrosinase inhibition was calculated, while the cell pellet was dissolved with 1 M NaOH and incubated at 55 °C for 1 h. Melanin concentration was calculated by comparing the absorbance at 475 nm using a standard curve of synthetic melanin.

[2] = tested on: MITF, tyrosinase, TRP1 and TRP2 in B16-F1 cells; test: Western blot of melanogenic protein expression; format: cell-based, murine; conditions: 25 and 50 µg/mL
Text: The protein content of the supernatant was quantified by the Bradford method using bovine serum albumin as standard. Equal amounts of protein were separated by 40% acrylamide/Bissolution (InvitrogenThermoFisher Scientific, Waltham, MA, USA) and transferred onto nitrocellulose membranes (BIO-RAD Laboratories, Feldkirchen, Germany). The membranes were probed with antibodies against microphthalmia-associated transcription factor; MITF (ThermoFisher Scientific #MA5-16214, Waltham, MA, USA), tyrosinase (ThermoFisher Scientific #35-6000, Waltham, MA, USA), tyrosinase-related protein 1; TRP1 (ThermoFisher Scientific #OSR00085W, Waltham, MA, USA) and tyrosinase-related protein 2; TRP2 (ThermoFisher Scientific #PA5-36485, Waltham, MA, USA). The proteins were detected using an enhanced chemiluminescence kit (BIO-RAD Laboratories, Hercules, CA, USA). Quantitative analysis was performed using a digital imager (UPV UVP, VisionWork^T LS, Image Acquisition & Analysis Software). The method applied was modified from Western Blot analysis for UGT1A family by the co-author, Asst. Prof. Dr. Wandee Udomuksorn, Pharmacology Program, Division of Health and Applied Science, Faculty of Science, Prince of Songkla University, Thailand., Department of Clinical Pharmacology, Flinders Medical Center.

[3] = tested on: B16-F1 melanoma cells; test: Melanin content; format: cell-based, murine; conditions: 50 µg/mL
Description: as §1

[4] = tested on: methicillin-resistant Staphylococcus aureus (DMST20654); test: MIC and MBC by modified broth microdilution; format: cell-based; conditions: MRSA; for MBC / MIC: Staphylococcus aureus
Description: (§2) Microorganisms that cause skin infection, such as Staphylococcus aureus (ATTC 25923), Staphylococcus epidermidis (TISTR 517), Cutibacterium acnes (DMST 14916) and methicillin-resistant Staphylococcus aureus (DMST20654), were selected for this study. The isolated compounds were determined for minimum inhibitory concentration (MIC) in a 96-well plate by modified broth microdilution method and minimum bactericidal concentration (MBC). Oxacillin was used as positive controls for S. aureus, S. epidermidis and C. acnes, while vancomycin was used for MRSA.

[5] = tested on: Cutibacterium acnes (DMST 14916); test: MIC and MBC by modified broth microdilution; format: cell-based; conditions: C. acnes
Description: as §2

[6] = tested on: Staphylococcus epidermidis (TISTR 517); test: MIC and MBC by modified broth microdilution; format: cell-based; conditions: S. epidermidis; for MBC / MIC: Staphylococcus epidermidis, TISTR517
Description: as §2

[7] = tested on: Staphylococcus aureus (ATTC 25923); test: MIC and MBC by modified broth microdilution; format: cell-based; conditions: S. aureus; for MBC / MIC: Staphylococcus aureus
Description: as §2

[8] = molecular target: tyrosinase enzyme; test: Enzymatic antityrosinase activity, Dopachrom method with L-DOPA; format: biochemical, mushroom; conditions: for IC50 Values: Experiment of Table 4, reference for the correlation, in µg/mL; for IC50 on tyrosinase inhibitory activity: L-DOPA substrate, pH 6.8, 25 °C
Description: The tyrosinase activity was measured by the Dopachrom method using L-DOPA as a substrate. Briefly, 140 μL phosphate buffer (pH 6.8), 20 μL sample solution, and 20 μL tyrosinase solution (203.3 unit/mL) were mixed at 25 °C for 10 min, after which 20 μL of 0.85 mM L-Dopa was added. The optical density (OD) was measured at 492 nm. After incubation at 25 °C for 20 min, the optical density was measured again.

[9] = tested on: tyrosinase; parameters: method as in PMID 27598113; conditions: cited from earlier work
[10] = listed as 3, 4, 3′, 5′-tetrahydroxybibenzyl

For CC(=CCc1c(O)cc(-c2cc3ccc(O)cc3o2)cc1O)CO [Compound 1, ω-Hydroxymoracin C], the Intracellular antityrosinase activity [1] was “exhibited antityrosinase activity”, the Melanogenic protein expression ([2]; listed as ω-Hydroxymoracin C) was “downregulated the melanogenic protein expression” and the Melanogenic protein expression ([2]; listed as ω-hydroxymoracin C) was “decreasing microphthalmia-associated transcription factor (MITF), tyrosinase (TYR), tyrosinase-related protein 1 (TRP1) and tyrosinase-related protein 2 (TRP2)”. The Melanin content [3] was “could decrease the melanin content”, the “Inhibitory effect (in words)” value [4] was “stronger inhibitory effect” and the MBC ([4]; read-out: MBC) was greater than 256 µg/mL. The MIC ([4]; read-out: MIC) was 16 µg/mL (≈ 49 µM), the MBC [5] was greater than 256 µg/mL and the MIC [5] was 128 µg/mL (≈ 392 µM). The “Inhibitory effect (in words)” value [6] was “stronger inhibitory effect”, the MBC [6] was 32 µg/mL (≈ 98.1 µM) and the MIC [6] was 16 µg/mL (≈ 49 µM). For the same compound, the “Inhibitory effect (in words)” value [7] was “stronger inhibitory effect”, the MBC [7] was 32 µg/mL (≈ 98.1 µM) and the MIC [7] was 16 µg/mL (≈ 49 µM). For the same compound, the “IC50 Values” [8] was 109.64 and the “IC50 on tyrosinase inhibitory activity” value [8] was 109.64 ± 0.89 µg/mL (≈ 336 µM).
For Oc1cc(O)cc(-c2cc3ccc(O)cc3o2)c1 [Compound 2, moracin M], the Intracellular antityrosinase activity [1] was “exhibited antityrosinase activity”, the Melanogenic protein expression [2] was “decreasing microphthalmia-associated transcription factor (MITF), tyrosinase (TYR), tyrosinase-related protein 1 (TRP1) and tyrosinase-related protein 2 (TRP2); also recorded: downregulated the melanogenic protein expression” and the Melanin content [3] was “could decrease the melanin content”. For the same compound, the “Inhibitory effect (in words)” value [4] was “weak inhibitory effect”, the MBC ([4]; read-out: MBC) was greater than 256 µg/mL and the MIC ([4]; read-out: MIC) was 64 µg/mL (≈ 264 µM). For the same compound, the MBC [5] was greater than 256 µg/mL, the MIC [5] was greater than 256 µg/mL and the “Inhibitory effect (in words)” value [6] was “weak inhibitory effect”. The MBC [6] was greater than 256 µg/mL, the MIC [6] was 64 µg/mL (≈ 264 µM) and the “Inhibitory effect (in words)” value [7] was “weak inhibitory effect”. For the same compound, the MBC [7] was greater than 256 µg/mL, the MIC [7] was 256 µg/mL (≈ 1060 µM) and the “IC50 Values” [8] was 47.34. The “IC50 on tyrosinase inhibitory activity” value [8] was 47.34 ± 0.78 µg/mL (≈ 195 µM).
With CC(C)=CCc1c(O)cc(-c2cc3ccc(O)cc3o2)cc1O [Compound 3, moracin C] the Intracellular antityrosinase activity [1] was “exhibited antityrosinase activity”, the Melanogenic protein expression [2] was “decreasing microphthalmia-associated transcription factor (MITF), tyrosinase (TYR), tyrosinase-related protein 1 (TRP1) and tyrosinase-related protein 2 (TRP2); also recorded: downregulated the melanogenic protein expression” and the Melanin content [3] was “could decrease the melanin content”. The “Inhibitory effect (in words)” value [4] was “stronger inhibitory effect”, the MBC ([4]; read-out: MBC) was 64 µg/mL (≈ 206 µM) and the MIC ([4]; read-out: MIC) was 32 µg/mL (≈ 103 µM). For the same compound, the MBC [5] was greater than 256 µg/mL, the MIC [5] was 128 µg/mL (≈ 412 µM) and the “Inhibitory effect (in words)” value [6] was “stronger inhibitory effect”. For the same compound, the MBC [6] was greater than 256 µg/mL, the MIC [6] was 128 µg/mL (≈ 412 µM) and the “Inhibitory effect (in words)” value [7] was “stronger inhibitory effect”. The MBC [7] was 64 µg/mL (≈ 206 µM), the MIC [7] was 32 µg/mL (≈ 103 µM) and the “IC50 Values” [8] was 128.67. The “IC50 on tyrosinase inhibitory activity” value [8] was 128.67 ± 1.21 µg/mL (≈ 415 µM).
For Oc1cc(O)cc(CCc2ccc(O)c(O)c2)c1 [Compound 4, 3,4, 3′, 5′-tetrahydroxybibenzyl], the Melanogenic protein expression [2, 10] was “increasing microphthalmia-associated transcription factor (MITF) and tyrosinase (TYR); also recorded: upregulating the melanogenic protein expression”, the Melanin content [3, 10] was “increased the melanin content; also recorded: increase melanin content” and the MBC ([4]; read-out: MBC) was 256 µg/mL (≈ 1040 µM). It also gave an MIC ([4]; read-out: MIC) of 64 µg/mL (≈ 260 µM), an MBC [5] greater than 256 µg/mL and an MIC [5] greater than 256 µg/mL. For the same compound, the MBC [6] was greater than 256 µg/mL, the MIC [6] was 128 µg/mL (≈ 520 µM) and the MBC [7] was 256 µg/mL (≈ 1040 µM). The MIC [7] was 128 µg/mL (≈ 520 µM) and the “IC50 on tyrosinase inhibitory activity” value [8] was 35.65 ± 0.98 µg/mL (≈ 145 µM).
In the case of Oc1cc(O)cc(/C=C/c2ccc(O)c(O)c2)c1 [Compound 5, piceatannol], the Melanogenic protein expression [2] is reported as “increasing microphthalmia-associated transcription factor (MITF) and tyrosinase (TYR); also recorded: upregulating the melanogenic protein expression”, the Melanin content [3] is reported as “increased the melanin content; also recorded: increase melanin content” and the MBC ([4]; read-out: MBC) is reported as greater than 256 µg/mL. For the same compound, the MIC ([4]; read-out: MIC) was 128 µg/mL (≈ 524 µM), the MBC [5] was greater than 256 µg/mL and the MIC [5] was greater than 256 µg/mL. The MBC [6] was 128 µg/mL (≈ 524 µM), the MIC [6] was 64 µg/mL (≈ 262 µM) and the MBC [7] was greater than 256 µg/mL. The MIC [7] was greater than 256 µg/mL, the “IC50 Values” [8] was 149.73 and the “IC50 on tyrosinase inhibitory activity” value [8] was 149.73 ± 0.86 µg/mL (≈ 613 µM).
With Cc1onc(-c2ccccc2)c1C(=O)N[C@@H]1C(=O)N2[C@@H]1SC(C)(C)[C@@H]2C(=O)O [Oxa, Oxacillin, reference compound] the MBC [5] was 0.5 µg/mL (≈ 1.25 µM), the MIC [5] was 0.5 µg/mL (≈ 1.25 µM) and the MBC [6] was 0.5 µg/mL (≈ 1.25 µM). For the same compound, the MIC [6] was 0.5 µg/mL (≈ 1.25 µM), the MBC [7] was 0.125 µg/mL (≈ 0.311 µM) and the MIC [7] was 0.125 µg/mL (≈ 0.311 µM).
Work on CN[C@H](CC(C)C)C(=O)N[C@H]1C(=O)N[C@@H](CC(N)=O)C(=O)N[C@H]2C(=O)N[C@H]3C(=O)N[C@H](C(=O)N[C@H](C(=O)O)c4cc(O)cc(O)c4-c4cc3ccc4O)[C@H](O)c3ccc(c(Cl)c3)Oc3cc2cc(c3O[C@@H]2O[C@H](CO)[C@@H](O)[C@H](O)[C@H]2O[C@H]2C[C@](C)(N)[C@H](O)[C@H](C)O2)Oc2ccc(cc2Cl)[C@H]1O [Van, Vancomycin, reference compound] yielded an MBC [4] of 0.5 µg/mL (≈ 0.345 µM) and an MIC [4] of 0.125 µg/mL (≈ 0.0863 µM).
In the case of CC1(C)C=Cc2c(O)cc(-c3cc4ccc(O)cc4o3)cc2O1 [moracin D], the “Antityrosinase activity (in words)” value [9] is given as “did not display antityrosinase activity”.
